Data reported in ChEMBL document CHEMBL5584280, “Optimization of Novel Pyrido-pyridazinone Derivatives as FER Tyrosine Kinase Inhibitors, Leading to the Potent DS08701581” (ACS Med Chem Lett, 2024).
Values after ≈ are worked out from the molar mass of the structure shown. One block for each compound: values may come before it.

Legend:
[1] = Toxicity in BALB/cAJcl-nu/nu mouse xenografted with […] mouse BaF3 cells expressing FER at 6.25 to 100 mg/kg, po qd for 10 days; type: organism-based; conditions: in vivo, 240 h, dose 6.25-100 mg/kg, time 10 day
[2] = target: Tyrosine-protein kinase SYK (Homo sapiens) (UniProt P43405); experiment: Inhibition of SYK (unknown origin) at 200 nM in presence of ATP by kinase profiling analysis relative to control
[3] = tested on: BaF3; experiment: Antitumor activity against […] mouse BaF3 cells expressing FER xenografted in BALB/cAJcl-nu/nu mouse administered orally once a day for 4 days; type: functional, cell-based; conditions: dose 6.25-100 mg/kg, route po, time 4.0 day
[4] = target: Receptor-type tyrosine-protein kinase FLT3 (Homo sapiens) (UniProt P36888); experiment: Inhibition of FLT3 (unknown origin) at 200 nM in presence of ATP by kinase profiling analysis relative to control
Chain of Receptor-type tyrosine-protein kinase FLT3 (Homo sapiens) (P36888 whole entry): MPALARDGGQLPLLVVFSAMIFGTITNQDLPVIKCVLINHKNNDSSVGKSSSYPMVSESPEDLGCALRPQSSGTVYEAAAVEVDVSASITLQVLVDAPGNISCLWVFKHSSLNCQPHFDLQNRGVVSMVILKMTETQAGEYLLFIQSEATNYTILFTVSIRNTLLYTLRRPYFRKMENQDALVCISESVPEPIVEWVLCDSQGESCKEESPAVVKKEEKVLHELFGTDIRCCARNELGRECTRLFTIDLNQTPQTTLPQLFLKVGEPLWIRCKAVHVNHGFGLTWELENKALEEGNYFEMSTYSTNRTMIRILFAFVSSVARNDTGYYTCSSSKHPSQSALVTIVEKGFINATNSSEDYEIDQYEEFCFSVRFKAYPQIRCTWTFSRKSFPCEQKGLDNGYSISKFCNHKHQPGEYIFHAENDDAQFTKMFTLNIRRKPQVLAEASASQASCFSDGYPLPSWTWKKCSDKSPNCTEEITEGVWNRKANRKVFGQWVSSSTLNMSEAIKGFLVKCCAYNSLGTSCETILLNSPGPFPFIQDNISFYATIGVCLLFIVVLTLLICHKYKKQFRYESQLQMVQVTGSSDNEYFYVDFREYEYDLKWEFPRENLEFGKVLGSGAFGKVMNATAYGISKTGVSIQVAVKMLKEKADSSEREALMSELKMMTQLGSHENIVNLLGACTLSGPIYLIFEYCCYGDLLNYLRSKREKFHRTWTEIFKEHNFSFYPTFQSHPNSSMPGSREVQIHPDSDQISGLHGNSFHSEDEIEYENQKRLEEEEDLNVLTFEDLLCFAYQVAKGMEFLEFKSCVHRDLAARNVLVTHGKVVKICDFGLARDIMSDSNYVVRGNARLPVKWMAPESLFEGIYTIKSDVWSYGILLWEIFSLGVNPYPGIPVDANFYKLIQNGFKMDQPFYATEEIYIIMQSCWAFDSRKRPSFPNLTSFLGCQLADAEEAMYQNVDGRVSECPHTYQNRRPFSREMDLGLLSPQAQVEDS

[5] = target: T1, Testis-specific serine/threonine-protein kinase 1 (Homo sapiens) (UniProt Q9BXA7); experiment: Inhibition of TSSK1B (unknown origin) at 200 nM in presence of ATP by kinase profiling analysis relative to control
T1 sequence (whole entry): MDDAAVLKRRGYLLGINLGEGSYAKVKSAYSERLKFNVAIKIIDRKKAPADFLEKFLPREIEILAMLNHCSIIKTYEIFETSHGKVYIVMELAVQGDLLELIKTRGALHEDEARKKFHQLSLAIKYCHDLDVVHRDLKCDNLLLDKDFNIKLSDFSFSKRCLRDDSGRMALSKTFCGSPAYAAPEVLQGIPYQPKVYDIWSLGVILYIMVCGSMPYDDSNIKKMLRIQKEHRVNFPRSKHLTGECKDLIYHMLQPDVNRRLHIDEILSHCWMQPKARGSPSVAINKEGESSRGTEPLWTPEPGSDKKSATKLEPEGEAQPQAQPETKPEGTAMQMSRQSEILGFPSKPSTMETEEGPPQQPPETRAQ

[6] = Solubility of compound in buffer at pH 6.8 incubated for 4 hrs by HPLC-UV analysis; type: physicochemical
[7] = Metabolic stability in CD-1 mouse liver microsomes assessed as compound remaining at 1 uM incubated for 30 mins by LC-MS/MS analysis; type: ADME, Microsome; conditions: read-out: Stability
[8] = Solubility of compound in FaSSIF incubated for 4 hrs by HPLC-UV analysis; type: ADME
[9] = Cmax in BALB/cAnNCrlCrlj mouse at 10 mg/kg, po; type: ADME, organism-based; conditions: in vivo
[10] = Protein binding in BALB/c mouse serum at 10 ug/ml incubated for 4 hrs by equilibrium dialysis; type: ADME, cell-free; conditions: at 10 µg/mL, read-out: PB (converted)
[11] = Permeability co-efficient of compound at 5 uM incubated for 4 hrs by PAMPA; type: ADME; conditions: read-out: Peff
[12] = tested on: BaF3; experiment: Inhibition of cell viability in mouse BaF3 cells incubated for 3 days by Cell Titer Glo assay; type: functional; conditions: BaF3, 72 h, time 3 day
[13] = Oral bioavailability in BALB/cAnNCrlCrlj mouse at 10 mg/kg; type: ADME, organism-based; conditions: in vivo
[14] = tested on: BaF3; experiment: Inhibition of cell viability in mouse BaF3 cells expressing FER incubated for 3 days by Cell Titer Glo assay; type: functional; conditions: BaF3, 72 h, time 3 day
[15] = target: ALK tyrosine kinase receptor (Homo sapiens) (UniProt Q9UM73); experiment: Inhibition of ALK (unknown origin) at 200 nM in presence of ATP by kinase profiling analysis relative to control
Chain of ALK tyrosine kinase receptor (Homo sapiens) (Q9UM73 19-1620 limits assumed): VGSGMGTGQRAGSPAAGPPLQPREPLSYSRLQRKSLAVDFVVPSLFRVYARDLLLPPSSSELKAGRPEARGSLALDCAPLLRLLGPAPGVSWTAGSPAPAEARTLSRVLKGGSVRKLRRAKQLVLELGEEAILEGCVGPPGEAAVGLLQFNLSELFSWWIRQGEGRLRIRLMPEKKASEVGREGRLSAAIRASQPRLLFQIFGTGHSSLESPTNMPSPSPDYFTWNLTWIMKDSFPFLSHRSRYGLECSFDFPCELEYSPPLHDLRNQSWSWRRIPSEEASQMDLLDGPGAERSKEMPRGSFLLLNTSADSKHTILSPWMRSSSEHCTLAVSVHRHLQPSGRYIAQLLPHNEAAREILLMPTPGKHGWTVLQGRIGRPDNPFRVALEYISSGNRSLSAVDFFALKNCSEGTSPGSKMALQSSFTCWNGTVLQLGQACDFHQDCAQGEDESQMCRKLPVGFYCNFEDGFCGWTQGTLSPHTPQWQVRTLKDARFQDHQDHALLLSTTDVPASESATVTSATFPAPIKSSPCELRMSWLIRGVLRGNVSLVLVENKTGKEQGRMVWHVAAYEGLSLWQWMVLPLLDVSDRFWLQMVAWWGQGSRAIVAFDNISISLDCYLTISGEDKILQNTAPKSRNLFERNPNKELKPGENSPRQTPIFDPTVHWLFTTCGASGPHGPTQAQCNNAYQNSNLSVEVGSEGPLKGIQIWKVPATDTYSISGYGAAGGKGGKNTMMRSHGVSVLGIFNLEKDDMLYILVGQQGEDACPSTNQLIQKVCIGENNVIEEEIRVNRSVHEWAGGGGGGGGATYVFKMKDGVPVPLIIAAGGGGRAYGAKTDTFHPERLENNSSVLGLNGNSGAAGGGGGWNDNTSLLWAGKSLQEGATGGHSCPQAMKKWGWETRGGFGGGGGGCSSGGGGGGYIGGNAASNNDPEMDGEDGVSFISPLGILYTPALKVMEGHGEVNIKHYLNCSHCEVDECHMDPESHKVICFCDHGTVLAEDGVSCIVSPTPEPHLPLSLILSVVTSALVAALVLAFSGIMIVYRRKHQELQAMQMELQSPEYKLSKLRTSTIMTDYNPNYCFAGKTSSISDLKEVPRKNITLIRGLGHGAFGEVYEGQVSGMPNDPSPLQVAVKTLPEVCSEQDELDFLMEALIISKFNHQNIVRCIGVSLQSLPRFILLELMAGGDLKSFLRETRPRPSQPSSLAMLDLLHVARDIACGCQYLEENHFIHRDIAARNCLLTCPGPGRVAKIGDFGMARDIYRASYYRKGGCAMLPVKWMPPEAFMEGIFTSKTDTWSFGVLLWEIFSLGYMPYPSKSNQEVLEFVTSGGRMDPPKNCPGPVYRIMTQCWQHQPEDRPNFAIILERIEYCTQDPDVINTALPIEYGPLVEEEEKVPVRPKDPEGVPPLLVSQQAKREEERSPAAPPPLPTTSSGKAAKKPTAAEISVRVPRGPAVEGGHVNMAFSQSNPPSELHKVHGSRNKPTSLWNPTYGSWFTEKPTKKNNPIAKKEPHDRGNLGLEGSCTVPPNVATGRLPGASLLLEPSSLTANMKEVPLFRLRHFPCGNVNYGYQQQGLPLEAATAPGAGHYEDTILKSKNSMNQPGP

[16] = target: Protein-tyrosine kinase 2-beta (Homo sapiens) (UniProt Q14289); experiment: Inhibition of PTK2B (unknown origin) at 200 nM in presence of ATP by kinase profiling analysis relative to control
Chain of Protein-tyrosine kinase 2-beta (Homo sapiens) (Q14289 whole entry, looked up): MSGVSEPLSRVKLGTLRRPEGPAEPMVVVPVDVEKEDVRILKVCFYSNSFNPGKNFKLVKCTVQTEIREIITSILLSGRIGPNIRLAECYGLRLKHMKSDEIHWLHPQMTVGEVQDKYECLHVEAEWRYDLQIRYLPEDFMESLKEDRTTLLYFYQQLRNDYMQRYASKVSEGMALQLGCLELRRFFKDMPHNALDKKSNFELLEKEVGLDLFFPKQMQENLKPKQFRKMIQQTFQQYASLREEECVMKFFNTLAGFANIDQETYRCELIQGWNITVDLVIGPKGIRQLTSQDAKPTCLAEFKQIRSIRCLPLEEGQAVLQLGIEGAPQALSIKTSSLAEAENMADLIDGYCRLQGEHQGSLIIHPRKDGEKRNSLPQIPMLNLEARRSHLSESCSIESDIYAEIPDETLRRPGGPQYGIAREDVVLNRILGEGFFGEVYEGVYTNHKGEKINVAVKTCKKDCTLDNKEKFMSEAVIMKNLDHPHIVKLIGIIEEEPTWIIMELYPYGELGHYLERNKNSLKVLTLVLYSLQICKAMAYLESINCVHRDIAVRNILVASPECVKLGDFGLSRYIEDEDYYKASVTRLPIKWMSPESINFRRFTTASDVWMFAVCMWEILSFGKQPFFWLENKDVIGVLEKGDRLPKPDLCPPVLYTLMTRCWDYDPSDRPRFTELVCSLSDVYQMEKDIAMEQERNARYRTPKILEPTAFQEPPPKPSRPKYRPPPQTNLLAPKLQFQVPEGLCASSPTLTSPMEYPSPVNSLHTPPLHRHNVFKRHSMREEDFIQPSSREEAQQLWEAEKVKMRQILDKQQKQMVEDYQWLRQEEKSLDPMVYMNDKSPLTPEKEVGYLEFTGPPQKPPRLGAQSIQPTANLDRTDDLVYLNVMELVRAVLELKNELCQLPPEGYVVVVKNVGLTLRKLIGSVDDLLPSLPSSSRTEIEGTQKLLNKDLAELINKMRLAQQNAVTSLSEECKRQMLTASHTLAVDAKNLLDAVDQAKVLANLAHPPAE

[17] = target: Serine/threonine-protein kinase Chk2 (Homo sapiens) (UniProt O96017); experiment: Inhibition of CHEK2 (unknown origin) at 200 nM in presence of ATP by kinase profiling analysis relative to control
Chain of Serine/threonine-protein kinase Chk2 (Homo sapiens) (O96017 whole entry): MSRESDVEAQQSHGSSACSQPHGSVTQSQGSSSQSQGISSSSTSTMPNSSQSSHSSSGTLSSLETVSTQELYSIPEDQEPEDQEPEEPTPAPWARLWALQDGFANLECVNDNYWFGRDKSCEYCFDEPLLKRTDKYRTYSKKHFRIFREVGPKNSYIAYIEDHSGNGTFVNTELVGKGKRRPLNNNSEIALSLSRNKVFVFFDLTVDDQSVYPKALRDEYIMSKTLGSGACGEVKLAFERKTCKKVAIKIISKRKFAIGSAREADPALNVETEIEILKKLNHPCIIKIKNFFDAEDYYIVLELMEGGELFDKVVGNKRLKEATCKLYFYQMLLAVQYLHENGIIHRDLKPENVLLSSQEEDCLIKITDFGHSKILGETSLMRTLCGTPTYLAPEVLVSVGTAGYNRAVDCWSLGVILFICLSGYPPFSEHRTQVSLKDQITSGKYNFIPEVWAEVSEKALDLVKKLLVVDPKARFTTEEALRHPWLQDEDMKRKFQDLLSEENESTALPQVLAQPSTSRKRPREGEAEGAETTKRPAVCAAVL

[18] = target: Leukocyte tyrosine kinase receptor (Homo sapiens) (UniProt P29376); experiment: Inhibition of LTK (unknown origin) at 200 nM in presence of ATP by kinase profiling analysis relative to control
Chain of Leukocyte tyrosine kinase receptor (Homo sapiens) (P29376 whole entry): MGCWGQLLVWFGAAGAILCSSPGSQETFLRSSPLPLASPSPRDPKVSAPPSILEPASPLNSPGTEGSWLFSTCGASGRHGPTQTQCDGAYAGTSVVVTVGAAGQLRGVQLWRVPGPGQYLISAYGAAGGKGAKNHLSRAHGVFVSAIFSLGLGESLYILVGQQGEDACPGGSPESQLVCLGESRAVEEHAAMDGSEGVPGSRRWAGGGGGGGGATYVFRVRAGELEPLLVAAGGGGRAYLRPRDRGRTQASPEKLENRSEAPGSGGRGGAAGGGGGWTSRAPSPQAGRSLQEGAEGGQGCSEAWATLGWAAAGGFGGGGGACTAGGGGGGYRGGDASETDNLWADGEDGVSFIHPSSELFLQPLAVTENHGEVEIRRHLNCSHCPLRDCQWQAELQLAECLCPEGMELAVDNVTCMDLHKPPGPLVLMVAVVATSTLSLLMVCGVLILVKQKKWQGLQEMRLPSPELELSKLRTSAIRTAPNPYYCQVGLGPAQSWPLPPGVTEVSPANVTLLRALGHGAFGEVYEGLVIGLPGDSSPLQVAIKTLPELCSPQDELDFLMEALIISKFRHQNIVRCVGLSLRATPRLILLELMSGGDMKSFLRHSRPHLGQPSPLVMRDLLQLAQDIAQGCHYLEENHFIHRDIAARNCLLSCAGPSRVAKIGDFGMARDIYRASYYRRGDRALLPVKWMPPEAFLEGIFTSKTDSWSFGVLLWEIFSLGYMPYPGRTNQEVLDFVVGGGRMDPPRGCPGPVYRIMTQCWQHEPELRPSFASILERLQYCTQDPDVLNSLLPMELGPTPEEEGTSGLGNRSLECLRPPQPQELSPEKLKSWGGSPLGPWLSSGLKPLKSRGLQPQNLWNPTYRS

[19] = Total plasma clearance in BALB/cAnNCrlCrlj mouse at 1 mg/kg, iv; type: ADME, organism-based
[20] = AUC in BALB/cAnNCrlCrlj mouse at 10 mg/kg, po; type: ADME, organism-based; conditions: in vivo
[21] = target: Macrophage colony-stimulating factor 1 receptor (Homo sapiens) (UniProt P07333); experiment: Inhibition of CSF1R (unknown origin) at 200 nM in presence of ATP by kinase profiling analysis relative to control
[22] = target: Mitogen-activated protein kinase kinase kinase kinase 4 (Homo sapiens) (UniProt O95819); experiment: Inhibition of MAP4K4 (unknown origin) at 200 nM in presence of ATP by kinase profiling analysis relative to control
[23] = target: Cyclin-dependent kinase 2 (Homo sapiens) (UniProt P24941); experiment: Inhibition of CDK2 (unknown origin) at 200 nM in presence of ATP by kinase profiling analysis relative to control
[24] = target: Proto-oncogene tyrosine-protein kinase ROS (Homo sapiens) (UniProt P08922); experiment: Inhibition of ROS1 (unknown origin) at 200 nM in presence of ATP by kinase profiling analysis relative to control
[25] = target: Mast/stem cell growth factor receptor Kit (Homo sapiens) (UniProt P10721); experiment: Inhibition of KIT (unknown origin) at 200 nM in presence of ATP by kinase profiling analysis relative to control
[26] = target: Tyrosine-protein kinase Fer (Homo sapiens, UniProt P16591); experiment: Inhibition of N-terminal His-tagged recombinant human FER using FL-Peptide22 as substrate incubated for 90 mins in presence of ATP
[27] = Toxicity in BALB/cAJcl-nu/nu mouse xenografted with […] mouse BaF3 cells expressing FER at 100 mg/kg, po qd for 10 days; type: organism-based; conditions: in vivo, 240 h, time 10 day
[28] = species: Homo sapiens; experiment: Inhibition of NTRK1 (unknown origin) at 200 nM in presence of ATP by kinase profiling analysis relative to control

inhibition [2]: > 90%
inhibition [4]: > 90%
inhibition [5]: > 90%
solubility at 4 h [6]: 6.7 µg/mL (≈ 13.7 µM)
remaining at 0.5 h, 1 µM [7]: 85%
solubility at 4 h [8]: 30 µg/mL (≈ 61.4 µM)
Cmax [9]: 630 ng/mL
fraction unbound at 4 h, 10 ug/ml [10]: 0.03
Papp at 4 h, 5 µM [11]: > 50 ×10⁻⁶ cm/s
GI50 [12]: 1000 nM
bioavailability [13]: 65%
GI50 [14]: 0.67 nM
inhibition [15]: > 90%
inhibition [16]: > 90%
inhibition [17]: > 90%
inhibition [18]: > 90%
clearance [19]: 13 mL/min/kg
AUC [20]: 8200 ng·h/mL
SMILES: C[C@@H]1CN(c2cccc(Nc3nc(N[C@@H]4CCCC[C@@H]4N)c(C#N)c4cn[nH]c(=O)c34)c2)C[C@H](C)O1
Activity [1]: Non-Toxic
Activity [3]: Dose-Dependent Effect

GI50 [12]: 1200 nM
GI50 [14]: 4.7 nM
SMILES: N[C@H]1CCCC[C@H]1Nc1nc(Nc2cccc(N3CCOCC3)c2)c2c(=O)[nH]ncc2c1F

GI50 [12]: 362 nM
GI50 [14]: 0.36 nM
SMILES: N#Cc1c(N[C@@H]2CCCC[C@@H]2N)nc(Nc2cccc(N3CC4(COC4)C3)c2)c2c(=O)[nH]ncc12

GI50 [12]: 340 nM
GI50 [14]: 57 nM
SMILES: Cn1cc(Nc2nc(NC3CCCCC3N)c(F)c3cn[nH]c(=O)c23)cn1 (racemic)

GI50 [12]: 630 nM
GI50 [14]: 76 nM
SMILES: CN1CCN(c2cccc(Nc3nc(NC4CCCCC4N)c(F)c4cn[nH]c(=O)c34)c2)CC1 (racemic)

GI50 [12]: 1600 nM
GI50 [14]: 50 nM
SMILES: CCOc1cccc(Nc2nc(NC3CCCCC3N)c(F)c3cn[nH]c(=O)c23)c1 (racemic)

GI50 [12]: 1230 nM
GI50 [14]: 30 nM
SMILES: Cc1cccc(Nc2nc(NC3CCCCC3N)c(F)c3cn[nH]c(=O)c23)c1 (racemic)

GI50 [12]: 310 nM
GI50 [14]: 1.2 nM
SMILES: N#Cc1c(N[C@@H]2CCCC[C@@H]2N)nc(Nc2cccc(N3CCOCC3)c2)c2c(=O)[nH]ncc12

inhibition [2]: > 90%
inhibition [4]: > 90%
inhibition [5]: > 90%
inhibition [21]: > 90%
inhibition [22]: > 90%
solubility at 4 h [6]: 0.9 µg/mL (≈ 2.31 µM)
inhibition [23]: > 90%
inhibition [24]: > 90%
remaining at 0.5 h, 1 µM [7]: 96%
solubility at 4 h [8]: 2.1 µg/mL (≈ 5.39 µM)
inhibition [25]: > 90%
IC50 [26]: 0.49 nM
Cmax [9]: 360 ng/mL
fraction unbound at 4 h, 10 ug/ml [10]: 0.01
Papp at 4 h, 5 µM [11]: > 50 ×10⁻⁶ cm/s
GI50 [12]: 220 nM
bioavailability [13]: 34%
GI50 [14]: 1.9 nM
inhibition [28]: > 90%
inhibition [15]: > 90%
inhibition [16]: > 90%
inhibition [17]: > 90%
clearance [19]: 12 mL/min/kg
AUC [20]: 4800 ng·h/mL
SMILES: Cc1cccc(Nc2nc(NC3CCCCC3N)c(C#N)c3cn[nH]c(=O)c23)c1 (centres undefined)
Activity [27]: Toxic
